# Test system: Klebsiella isolates
# Test: Antibiotic susceptibility of Klebsiella clinical isolates per 7-SNP clonotype (Lookup Table 1; disk diffusion)
# Assay type: cell-based, Klebsiella spp.
# Conditions: CT 301
# Protocol: In further embodiments, the Lookup Table is Lookup Table 1. The information contained in Lookup Table 1 below was obtained from urine specimens from patients with Klebsiella infections from several clinics within different regions of the United States. CT=clonotypes determined using a 7-SNP combination: phoE54; rpoB130; infB279; mdh315; phoE336; phoE354; and mdh429.
# Next, antibiotic resistance was determined for all 387 Klebsiella isolates in the discovery set. Antibiotic testing was carried out according to the standard disk diffusion method as described in the Clinical and Laboratory Standards Institute (M100 Performance Standards for Antimicrobial Susceptibility Testing, 27th Edition, 2017). […] Since almost all Klebsiella isolates are known to be resistant to AMP and sensitive to IMI, TET is not used for treatment of urinary tract infections, and ESBL production is partially reflected in resistance to CTR, these antibiotics were not included for further analysis.
# To aid in clinical decision-making and to translate clonotype information to treatment selection, Lookup Table 1 was generated. […] The information contained in Lookup Table 1 was obtained from urine specimens from patients with Klebsiella infections from several clinics within different regions of the United States. Indications of allowance or non-recommendation were determined based on a 20% resistance threshold to the indicated antibiotic; i.e., the antibiotic is recommended when more than 80% of the tested isolates within the indicated clonotype were susceptible to the indicated antibiotic, and was cautioned against when less than 80% of the isolates were susceptible to the antibiotic.
row,SMILES,"susceptibility, %"
1,"CN(C)[C@@H]1C(O)=C(C(N)=O)C(=O)[C@@]2(O)C(O)=C3C(=O)c4c(O)cccc4[C@@](C)(O)[C@H]3C[C@@H]12 [TET, tetracycline]",88%

# Same assay, conditions: CT 310
row,SMILES,"susceptibility, %"
1,"CN(C)[C@@H]1C(O)=C(C(N)=O)C(=O)[C@@]2(O)C(O)=C3C(=O)c4c(O)cccc4[C@@](C)(O)[C@H]3C[C@@H]12 [TET, tetracycline]",93%

# Same assay, conditions: CT 311
row,SMILES,"susceptibility, %"
1,"CN(C)[C@@H]1C(O)=C(C(N)=O)C(=O)[C@@]2(O)C(O)=C3C(=O)c4c(O)cccc4[C@@](C)(O)[C@H]3C[C@@H]12 [TET, tetracycline]",80%

# Same assay, conditions: CT 330
row,SMILES,"susceptibility, %"
1,"CN(C)[C@@H]1C(O)=C(C(N)=O)C(=O)[C@@]2(O)C(O)=C3C(=O)c4c(O)cccc4[C@@](C)(O)[C@H]3C[C@@H]12 [TET, tetracycline]",80%

# Same assay, conditions: CT 331
row,SMILES,"susceptibility, %"
1,"CN(C)[C@@H]1C(O)=C(C(N)=O)C(=O)[C@@]2(O)C(O)=C3C(=O)c4c(O)cccc4[C@@](C)(O)[C@H]3C[C@@H]12 [TET, tetracycline]",75%

# Same assay, conditions: CT 350
row,SMILES,"susceptibility, %"
1,"CN(C)[C@@H]1C(O)=C(C(N)=O)C(=O)[C@@]2(O)C(O)=C3C(=O)c4c(O)cccc4[C@@](C)(O)[C@H]3C[C@@H]12 [TET, tetracycline]",83%

# Same assay, conditions: CT 351
row,SMILES,"susceptibility, %"
1,"CN(C)[C@@H]1C(O)=C(C(N)=O)C(=O)[C@@]2(O)C(O)=C3C(=O)c4c(O)cccc4[C@@](C)(O)[C@H]3C[C@@H]12 [TET, tetracycline]",86%

# Same assay, conditions: CT 370
row,SMILES,"susceptibility, %"
1,"CN(C)[C@@H]1C(O)=C(C(N)=O)C(=O)[C@@]2(O)C(O)=C3C(=O)c4c(O)cccc4[C@@](C)(O)[C@H]3C[C@@H]12 [TET, tetracycline]",75%

# Same assay, conditions: CT 371
row,SMILES,"susceptibility, %"
1,"CN(C)[C@@H]1C(O)=C(C(N)=O)C(=O)[C@@]2(O)C(O)=C3C(=O)c4c(O)cccc4[C@@](C)(O)[C@H]3C[C@@H]12 [TET, tetracycline]",100%

# Same assay, conditions: CT 411
row,SMILES,"susceptibility, %"
1,"CN(C)[C@@H]1C(O)=C(C(N)=O)C(=O)[C@@]2(O)C(O)=C3C(=O)c4c(O)cccc4[C@@](C)(O)[C@H]3C[C@@H]12 [TET, tetracycline]",100%

# Same assay, conditions: CT 450
row,SMILES,"susceptibility, %"
1,"CN(C)[C@@H]1C(O)=C(C(N)=O)C(=O)[C@@]2(O)C(O)=C3C(=O)c4c(O)cccc4[C@@](C)(O)[C@H]3C[C@@H]12 [TET, tetracycline]",83%

# Same assay, conditions: CT 451
row,SMILES,"susceptibility, %"
1,"CN(C)[C@@H]1C(O)=C(C(N)=O)C(=O)[C@@]2(O)C(O)=C3C(=O)c4c(O)cccc4[C@@](C)(O)[C@H]3C[C@@H]12 [TET, tetracycline]",100%

# Same assay, conditions: CT 510
row,SMILES,"susceptibility, %"
1,"CN(C)[C@@H]1C(O)=C(C(N)=O)C(=O)[C@@]2(O)C(O)=C3C(=O)c4c(O)cccc4[C@@](C)(O)[C@H]3C[C@@H]12 [TET, tetracycline]",100%

# Same assay, conditions: CT 511
row,SMILES,"susceptibility, %"
1,"CN(C)[C@@H]1C(O)=C(C(N)=O)C(=O)[C@@]2(O)C(O)=C3C(=O)c4c(O)cccc4[C@@](C)(O)[C@H]3C[C@@H]12 [TET, tetracycline]",100%

# Same assay, conditions: CT 530
row,SMILES,"susceptibility, %"
1,"CN(C)[C@@H]1C(O)=C(C(N)=O)C(=O)[C@@]2(O)C(O)=C3C(=O)c4c(O)cccc4[C@@](C)(O)[C@H]3C[C@@H]12 [TET, tetracycline]",75%

# Same assay, conditions: CT 531
row,SMILES,"susceptibility, %"
1,"CN(C)[C@@H]1C(O)=C(C(N)=O)C(=O)[C@@]2(O)C(O)=C3C(=O)c4c(O)cccc4[C@@](C)(O)[C@H]3C[C@@H]12 [TET, tetracycline]",100%

# Same assay, conditions: CT 550
row,SMILES,"susceptibility, %"
1,"CN(C)[C@@H]1C(O)=C(C(N)=O)C(=O)[C@@]2(O)C(O)=C3C(=O)c4c(O)cccc4[C@@](C)(O)[C@H]3C[C@@H]12 [TET, tetracycline]",75%

# Same assay, conditions: CT 551
row,SMILES,"susceptibility, %"
1,"CN(C)[C@@H]1C(O)=C(C(N)=O)C(=O)[C@@]2(O)C(O)=C3C(=O)c4c(O)cccc4[C@@](C)(O)[C@H]3C[C@@H]12 [TET, tetracycline]",93%

# Same assay, conditions: CT 570
row,SMILES,"susceptibility, %"
1,"CN(C)[C@@H]1C(O)=C(C(N)=O)C(=O)[C@@]2(O)C(O)=C3C(=O)c4c(O)cccc4[C@@](C)(O)[C@H]3C[C@@H]12 [TET, tetracycline]",75%

# Same assay, conditions: CT 571
row,SMILES,"susceptibility, %"
1,"CN(C)[C@@H]1C(O)=C(C(N)=O)C(=O)[C@@]2(O)C(O)=C3C(=O)c4c(O)cccc4[C@@](C)(O)[C@H]3C[C@@H]12 [TET, tetracycline]",100%

# Same assay, conditions: CT 611
row,SMILES,"susceptibility, %"
1,"CN(C)[C@@H]1C(O)=C(C(N)=O)C(=O)[C@@]2(O)C(O)=C3C(=O)c4c(O)cccc4[C@@](C)(O)[C@H]3C[C@@H]12 [TET, tetracycline]",67%

# Same assay, conditions: CT 630
row,SMILES,"susceptibility, %"
1,"CN(C)[C@@H]1C(O)=C(C(N)=O)C(=O)[C@@]2(O)C(O)=C3C(=O)c4c(O)cccc4[C@@](C)(O)[C@H]3C[C@@H]12 [TET, tetracycline]",100%

# Same assay, conditions: CT 650
row,SMILES,"susceptibility, %"
1,"CN(C)[C@@H]1C(O)=C(C(N)=O)C(=O)[C@@]2(O)C(O)=C3C(=O)c4c(O)cccc4[C@@](C)(O)[C@H]3C[C@@H]12 [TET, tetracycline]",83%

# Same assay, conditions: CT 651
row,SMILES,"susceptibility, %"
1,"CN(C)[C@@H]1C(O)=C(C(N)=O)C(=O)[C@@]2(O)C(O)=C3C(=O)c4c(O)cccc4[C@@](C)(O)[C@H]3C[C@@H]12 [TET, tetracycline]",92%

# Same assay, conditions: CT 670
row,SMILES,"susceptibility, %"
1,"CN(C)[C@@H]1C(O)=C(C(N)=O)C(=O)[C@@]2(O)C(O)=C3C(=O)c4c(O)cccc4[C@@](C)(O)[C@H]3C[C@@H]12 [TET, tetracycline]",100%

# Same assay, conditions: CT 710
row,SMILES,"susceptibility, %"
1,"CN(C)[C@@H]1C(O)=C(C(N)=O)C(=O)[C@@]2(O)C(O)=C3C(=O)c4c(O)cccc4[C@@](C)(O)[C@H]3C[C@@H]12 [TET, tetracycline]",67%

# Same assay, conditions: CT 730
row,SMILES,"susceptibility, %"
1,"CN(C)[C@@H]1C(O)=C(C(N)=O)C(=O)[C@@]2(O)C(O)=C3C(=O)c4c(O)cccc4[C@@](C)(O)[C@H]3C[C@@H]12 [TET, tetracycline]",79%

# Same assay, conditions: CT 731
row,SMILES,"susceptibility, %"
1,"CN(C)[C@@H]1C(O)=C(C(N)=O)C(=O)[C@@]2(O)C(O)=C3C(=O)c4c(O)cccc4[C@@](C)(O)[C@H]3C[C@@H]12 [TET, tetracycline]",85%

# Same assay, conditions: CT 750
row,SMILES,"susceptibility, %"
1,"CN(C)[C@@H]1C(O)=C(C(N)=O)C(=O)[C@@]2(O)C(O)=C3C(=O)c4c(O)cccc4[C@@](C)(O)[C@H]3C[C@@H]12 [TET, tetracycline]",95%

# Same assay, conditions: CT 751
row,SMILES,"susceptibility, %"
1,"CN(C)[C@@H]1C(O)=C(C(N)=O)C(=O)[C@@]2(O)C(O)=C3C(=O)c4c(O)cccc4[C@@](C)(O)[C@H]3C[C@@H]12 [TET, tetracycline]",100%

# Same assay, conditions: CT 771
row,SMILES,"susceptibility, %"
1,"CN(C)[C@@H]1C(O)=C(C(N)=O)C(=O)[C@@]2(O)C(O)=C3C(=O)c4c(O)cccc4[C@@](C)(O)[C@H]3C[C@@H]12 [TET, tetracycline]",100%

# Same assay, conditions: CT Any Klebsiella spp.
row,SMILES,"susceptibility, %"
1,"CN(C)[C@@H]1C(O)=C(C(N)=O)C(=O)[C@@]2(O)C(O)=C3C(=O)c4c(O)cccc4[C@@](C)(O)[C@H]3C[C@@H]12 [TET, tetracycline]",82%
